In ChEMBL document CHEMBL4725382, “Uridine natural products: Challenging targets and inspiration for novel small molecule inhibitors” (Bioorg Med Chem, 2020):
Converted amounts (≈) assume the structure as drawn.

Columns and labels:
[1] = Inhibition of MraY in Staphylococcus aureus by fluorescence assay
[2] = test system: Staphylococcus aureus; assay: Inhibition of MraY in Staphylococcus aureus at 1 mM by fluorescence assay relative to control
[3] = Inhibition of Campylobacter jejuni phosphoglycosyl transferase Pg1D
[4] = Inhibition of Campylobacter concisus phosphoglycosyl transferase Pg1C
[5] = Inhibition of Clostridium difficile phosphoglycosyl transferase; design: species or system Clostridioides difficile
[6] = test system: Mycobacterium tuberculosis; assay: Antimycobacterial activity against Mycobacterium tuberculosis H37Rv ATCC 27294 after 14 days by resazurin reduction microplate assay; type: functional; settings: H37Rv ATCC 27294, 336 h

Cc1cn([C@H]2C[C@H](O)[C@@H](C[C@H](NCCCNC(=O)[C@H](CC(C)C)NC(=O)[C@H](CCCCN)NC(=O)N[C@H](C(=O)O)C(C)C)C(=O)O)O2)c(=O)[nH]c1=O
IC50 [1]: > 100 µM
inhibition [2]: 38%

CC(C)C[C@H](NC(=O)[C@H](C)NC(=O)N[C@H](C(=O)O)C(C)C)C(=O)NCCCN[C@@H](C[C@H]1O[C@@H](n2ccc(=O)[nH]c2=O)[C@H](O)[C@@H]1O)C(=O)O
IC50 [1]: 14 µM

O=C(Cn1cc(-c2cccc(F)c2)nn1)NC[C@H]1O[C@@H](n2ccc(=O)[nH]c2=O)[C@H](O)[C@@H]1O
IC50 [3]: 35 µM

CC(C)C[C@H](NC(=O)[C@H](CCCCN)NC(=O)N[C@@H](C)C(=O)O)C(=O)NCCCN[C@@H](C[C@H]1O[C@@H](n2ccc(=O)[nH]c2=O)[C@H](O)[C@@H]1O)C(=O)O
IC50 [1]: 21 µM

O=C(O)CC[C@H](NC(=O)Cn1cc(-c2cccc(F)c2)nn1)C(=O)NC[C@H]1O[C@@H](n2ccc(=O)[nH]c2=O)[C@H](O)[C@@H]1O
IC50 [4]: 72 µM

CC(C)C[C@H](NC(=O)[C@H](CCCCN)NC(=O)N[C@H](C(=O)O)C(C)C)C(=O)NCCCN[C@@H](C[C@H]1O[C@@H](n2ccc(=O)[nH]c2=O)C[C@@H]1O)C(=O)O
IC50 [1]: 4.6 µM

O=c1ccn([C@@H]2O[C@H](CNc3c(NCc4cccc(F)c4)c(=O)c3=O)[C@@H](O)[C@H]2O)c(=O)[nH]1
IC50 [5]: 174 µM

COc1ccc2cc(-c3cn(CC(=O)N[C@@H](CCC(=O)O)C(=O)NC[C@H]4O[C@@H](n5ccc(=O)[nH]c5=O)[C@H](O)[C@@H]4O)nn3)ccc2c1
IC50 [4]: 116 µM

CC(C)[C@H](NC(=O)N[C@@H](CCCCN)C(=O)N[C@@H](C)C(=O)NCCCN[C@@H](C[C@H]1O[C@@H](n2ccc(=O)[nH]c2=O)[C@H](O)[C@@H]1O)C(=O)O)C(=O)O
IC50 [1]: 95 µM

CC(C)C[C@H](NC(=O)[C@H](CCCCN)NC(=O)N[C@H](C(=O)O)C(C)C)C(=O)NCCCN[C@@H](C[C@H]1O[C@@H](n2cc(F)c(=O)[nH]c2=O)[C@H](O)[C@@H]1O)C(=O)O
IC50 [1]: > 100 µM
inhibition [2]: 40%

CC(C)C[C@H](NC(=O)[C@H](CCCCN)NC(=O)N[C@H](C(=O)O)C(C)C)C(=O)NCCCN[C@@H](C[C@H]1O[C@@H](n2ccc(=O)[nH]c2=O)[C@H](O)[C@@H]1O)C(=O)O
IC50 [1]: 2.5 µM

C[C@@H]([C@H](NC(=O)[C@@H](NC(=O)N[C@@H](Cc1c[nH]c2ccccc12)C(=O)O)C1CCCCC1)C(=O)NC[C@H]1C[C@@H](O)[C@H](n2ccc(=O)[nH]c2=O)O1)N(C)C(=O)CN
MIC50 [6]: 0.51 µM (≈ 0.392 µg/mL)

CC(C)C[C@H](NC(=O)N[C@@H](Cc1c[nH]c2ccccc12)C(=O)O)C(=O)N[C@H](C(=O)NC[C@H]1C[C@@H](O)[C@H](n2ccc(=O)[nH]c2=O)O1)[C@H](C)N(C)C(=O)[C@@H](N)Cc1cccnc1
MIC50 [6]: 5.85 µM (≈ 4.87 µg/mL)

C[C@@H]([C@H](NC(=O)[C@H](Cc1ccc(O)cc1)NC(=O)N[C@@H](Cc1c[nH]c2ccccc12)C(=O)O)C(=O)NC[C@H]1C[C@@H](O)[C@H](n2ccc(=O)[nH]c2=O)O1)N(C)C(=O)CN
MIC50 [6]: 0.52 µM (≈ 0.412 µg/mL)

CC(C)C[C@H](NC(=O)[C@H](CCCCN)NC(=O)N[C@H](C(=O)O)C(C)C)C(=O)NCCCN[C@@H](C[C@H]1O[C@@H](N2CCC(=O)NC2=O)[C@H](O)[C@@H]1O)C(=O)O
IC50 [1]: 27 µM
